This note sets out measurements from ChEMBL document CHEMBL5154926, “Discovery of a Novel Series of Imipridone Compounds as Homo sapiens Caseinolytic Protease P Agonists with Potent Antitumor Activities In Vitro and In Vivo” (J Med Chem, 2022).

Each structure is given as a SMILES string. pIC50: −log10 of the molar value. In brackets after ≈: the same amount, converted by molar mass.

The test system of data set [1] is HCT-116. Briefly: Induction of cell cycle arrest in human HCT-116 cells assessed as accumulation of cells at G0/G1 phase at 12.5 nM incubated for 48 hrs propidium iodide based flow cytometric analysis (reference value: 26 %). The class given is functional.
For data set [2], the system named is HCT-116. Kind of data set: Induction of cell cycle arrest in human HCT-116 cells assessed as accumulation of cells at G0/G1 phase at 50 nM incubated for 48 hrs propidium iodide based flow cytometric analysis (reference value: 26 %). The class given is functional.
For data set [3], the system named is HCT-116. Kind of data set: Induction of apoptosis in human HCT-116 cells assessed as viable cells at 12.5 nM incubated for 48 hrs by Annexin V/FITC staining based flow cytometric method (reference value: 97.66%). The class given is functional. As to conditions: read-out: Activity.
The subject of data set [4] is HCT-116. Briefly: Induction of apoptosis in human HCT-116 cells assessed as early apoptotic cells at 12.5 nM incubated for 48 hrs by Annexin V/FITC staining based flow cytometric method (reference value: […]). The format is functional.
The subject of data set [5] is HCT-116. Briefly: Induction of apoptosis in human HCT-116 cells assessed as late apoptotic cells at 12.5 nM incubated for 48 hrs by Annexin V/FITC staining based flow cytometric method (reference value: 1.57%). The class given is functional.
Data set [6] relates to HCT-116. Kind of data set: Induction of apoptosis in human HCT-116 cells assessed as necrotic cells at 12.5 nM incubated for 48 hrs by Annexin V/FITC staining based flow cytometric method (reference value: 0.05%). The class given is functional.
Data set [7] has as its system HCT-116. Briefly: Induction of apoptosis in human HCT-116 cells assessed as viable cells at 25 nM incubated for 48 hrs by Annexin V/FITC staining based flow cytometric method (reference value: 97.66%). The format is functional. The note with it: read-out: Activity.
Data set [8] relates to HCT-116. Briefly: Induction of apoptosis in human HCT-116 cells assessed as early apoptotic cells at 25 nM incubated for 48 hrs by Annexin V/FITC staining based flow cytometric method (reference value: […]). The format is functional.
Data set [9] relates to HCT-116. Kind of data set: Induction of apoptosis in human HCT-116 cells assessed as late apoptotic cells at 25 nM incubated for 48 hrs by Annexin V/FITC staining based flow cytometric method (reference value: 1.57%). The class given is functional.
The subject of data set [10] is HCT-116. Briefly: Induction of apoptosis in human HCT-116 cells assessed as necrotic cells at 25 nM incubated for 48 hrs by Annexin V/FITC staining based flow cytometric method (reference value: 0.05%). The class given is functional.
The test system of data set [11] is HCT-116. Briefly: Induction of apoptosis in human HCT-116 cells assessed as viable cells at 50 nM incubated for 48 hrs by Annexin V/FITC staining based flow cytometric method (reference value: 97.66%). The class given is functional. As to conditions: read-out: Activity.
The test system of data set [12] is HCT-116. Kind of data set: Induction of apoptosis in human HCT-116 cells assessed as early apoptotic cells at 50 nM incubated for 48 hrs by Annexin V/FITC staining based flow cytometric method (reference value: […]). The class given is functional.
The subject of data set [13] is HCT-116. Briefly: Induction of apoptosis in human HCT-116 cells assessed as late apoptotic cells at 50 nM incubated for 48 hrs by Annexin V/FITC staining based flow cytometric method (reference value: 1.57%). The format is functional.
Data set [14] deals with HCT-116. Kind of data set: Induction of apoptosis in human HCT-116 cells assessed as necrotic cells at 50 nM incubated for 48 hrs by Annexin V/FITC staining based flow cytometric method (reference value: 0.05%). The format is functional.
A short description of data set [15]: 1-octanol/water partition coefficient, log P of the compound agitated for 4 hrs measured by shake flask assay based HPLC analysis. The format is physicochemical.
A short description of data set [16]: Aqueous solubility of the compound agitated for 24 hrs by HPLC analysis. The format is physicochemical. As to conditions: buffer.
Data set [17] can be described thus: Stability in human liver microsomes assessed as half life at 1.5 uM measured upto 90 mins in presence of NADPH by LC/MS analysis. The format is ADME, Microsome. The note with it: human liver microsomes.
A short description of data set [18]: Stability in rat liver microsomes assessed as half life at 1.5 uM measured upto 90 mins in presence of NADPH by LC/MS analysis. The format is ADME, Microsome. As to conditions: 1.5 h.
Data set [19] can be described thus: Stability in human liver microsomes assessed as intrinsic clearance at 1.5 uM measured upto 90 mins in presence of NADPH by LC/MS analysis. The format is ADME, Microsome. As to conditions: read-out: CLH.
Data set [20] addresses Voltage-gated inwardly rectifying potassium channel KCNH2 (Homo sapiens, UniProt Q12809). Briefly: Inhibition of hERG expressed in HEK293 cells by automated patch clamp assay. The format is toxicity, cell-based.
For data set [21], the system named is HCT-116. Briefly: Induction of ROS generation in human HCT-116 cells at 12.5 nM measured after 24 hrs by DHE staining based fluorescence assay (reference value: […] %). The format is functional.
Data set [22] concerns HCT-116. Kind of data set: Induction of ROS generation in human HCT-116 cells at 25 nM measured after 24 hrs by DHE staining based fluorescence assay (reference value: […] %). The class given is functional.
Data set [23] relates to HCT-116. Briefly: Induction of ROS generation in human HCT-116 cells at 50 nM measured after 24 hrs by DHE staining based fluorescence assay (reference value: […] %). The format is functional.

Sequence of Voltage-gated inwardly rectifying potassium channel KCNH2 (Q12809 whole entry): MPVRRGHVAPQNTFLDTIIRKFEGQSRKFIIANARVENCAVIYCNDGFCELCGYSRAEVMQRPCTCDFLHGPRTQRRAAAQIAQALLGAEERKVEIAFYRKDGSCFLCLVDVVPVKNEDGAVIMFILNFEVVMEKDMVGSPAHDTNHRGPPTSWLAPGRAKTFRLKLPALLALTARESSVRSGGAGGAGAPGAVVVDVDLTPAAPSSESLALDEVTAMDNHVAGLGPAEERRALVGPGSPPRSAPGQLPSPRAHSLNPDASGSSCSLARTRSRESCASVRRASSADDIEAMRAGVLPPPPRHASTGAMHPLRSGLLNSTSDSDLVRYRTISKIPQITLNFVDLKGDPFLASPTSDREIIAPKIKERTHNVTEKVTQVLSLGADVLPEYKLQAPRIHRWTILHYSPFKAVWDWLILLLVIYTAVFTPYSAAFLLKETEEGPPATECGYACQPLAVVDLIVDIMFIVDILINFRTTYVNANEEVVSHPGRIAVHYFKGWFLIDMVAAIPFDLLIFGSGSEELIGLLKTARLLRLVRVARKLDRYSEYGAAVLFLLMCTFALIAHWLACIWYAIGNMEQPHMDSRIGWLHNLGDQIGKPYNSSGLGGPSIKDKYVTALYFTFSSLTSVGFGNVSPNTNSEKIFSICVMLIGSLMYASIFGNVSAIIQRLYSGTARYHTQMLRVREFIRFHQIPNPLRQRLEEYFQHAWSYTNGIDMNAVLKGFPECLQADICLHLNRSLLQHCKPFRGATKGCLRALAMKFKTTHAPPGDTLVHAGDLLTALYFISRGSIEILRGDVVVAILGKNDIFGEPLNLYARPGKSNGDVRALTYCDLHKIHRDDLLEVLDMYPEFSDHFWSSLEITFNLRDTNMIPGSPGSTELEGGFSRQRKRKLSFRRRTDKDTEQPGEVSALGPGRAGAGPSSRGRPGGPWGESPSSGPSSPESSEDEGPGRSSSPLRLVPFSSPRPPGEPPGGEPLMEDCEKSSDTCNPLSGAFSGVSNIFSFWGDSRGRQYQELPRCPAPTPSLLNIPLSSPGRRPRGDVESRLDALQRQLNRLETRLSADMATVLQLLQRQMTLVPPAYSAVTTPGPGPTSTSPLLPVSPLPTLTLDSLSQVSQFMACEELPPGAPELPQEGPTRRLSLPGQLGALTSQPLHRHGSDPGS

As for `O=c1nc2n(c3c1CN(Cc1ccccc1)CC3)CCN2Cc1ccc(F)c(Br)c1`, the Activity with HCT-116 [1] is reported as 40%; with HCT-116 [2], 55%; in the data set with HCT-116 [4] it was 1.27%; with HCT-116 [5], 2.82%; with HCT-116 [6] it was 0.07%; with HCT-116 [8] it was 2.14%. Besides, the Activity stood at 3% in the data set on HCT-116 [9]; 0.12% with HCT-116 [10]; 3.16% in the data set on HCT-116 [12]; 5.12% in the data set with HCT-116 [13]; 0.16% in the data set with HCT-116 [14]; 99.46% in the data set with HCT-116 [21]. Moreover, the Activity in the data set with HCT-116 [22] is 97.9%; with HCT-116 [23] it was 99.4%. Further, the viability at 0.0125 µM with HCT-116 [3] is 95.8%. For the same molecule, the viability at […] in the data set on HCT-116 [7] was 94.7%. Further, the viability at 0.05 µM in the data set with HCT-116 [11] came out at 91.6%. This molecule also showed a logP at 4 h in [15] of 3.21. Also, the concentration in solution in [16] (solubility at 24 h) came to 100 µM (≈ 47.1 µg/mL). Moreover, in [17], the half-life at 1.5 µM stood at 13 min. Further, the t1/2 in data set [18] was 16.1 min. In addition, in data set [19], the CLint scaled at 1.5 µM was determined as 134 mL/min/kg. The pIC50 in [20] was 5.31.
